# Measured values as given in the supplement of paper PMC10307832.
# Compound: COc1cc([C@@H]2c3cc4c(cc3[C@@H](O[C@@H]3O[C@@H]5CO[C@@H](C)O[C@H]5[C@H](O)[C@H]3O)[C@H]3COC(=O)[C@H]23)OCO4)cc(OC)c1O [Etoposide] + C[C@@H](Oc1cc(-c2cnn(C3CCNCC3)c2)cnc1N)c1c(Cl)ccc(F)c1Cl [Crizotinib] (partner 1 µM)
# Assay: relative viability (nuclei count vs DMSO), 5 days (fraction); higher = more cells survive
# Conditions: first compound 0.01 µM
# Summary of the method: (§1)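 Relative viability is defined as nuclei in treated wells over nuclei in vehicle wells. Duplicate plates were run and medians reported. Lung cancer cell lines in 1536-well plates were dosed by pin tool one day after seeding, with one drug or with a fixed anchor-drug dose plus five library-drug doses (not always all listed) in √10 steps, and nuclei were counted after 5 days.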
row,Cell Line,relative viability
1,NCI-H23,0.365
2,NCI-H1792,1.02
3,NCI-H1355,0.918
4,NCI-H322M,0.775
5,NCI-H1437,1.04
6,NCI-H1755,0.846
7,NCI-H2023,0.605
8,HCC-15,0.799
9,PC-3 [JPC-3],0.955
10,EKVX,0.868
11,LC-2-ad,0.568
12,NCI-H1975,0.98
13,SK-LU-1,0.778
14,NCI-H661,1.03
15,RERF-LC-KJ,0.885

# Same assay, conditions: first compound 0.03162 µM
row,Cell Line,relative viability
1,NCI-H23,0.471
2,NCI-H1792,0.913
3,NCI-H1355,1.15
4,NCI-H322M,0.889
5,NCI-H1437,0.918
6,NCI-H1755,0.839
7,NCI-H2023,0.622
8,HCC-15,0.821
9,PC-3 [JPC-3],1.01
10,EKVX,0.916
11,LC-2-ad,0.45
12,NCI-H1975,1.06
13,SK-LU-1,0.902
14,NCI-H661,0.981
15,RERF-LC-KJ,0.798

# Same assay, conditions: first compound 0.1 µM
row,Cell Line,relative viability
1,NCI-H23,0.402
2,NCI-H1792,0.825
3,NCI-H1355,0.5
4,NCI-H322M,0.905
5,NCI-H1437,0.926
6,NCI-H1755,0.931
7,NCI-H2023,0.525
8,HCC-15,0.856
9,PC-3 [JPC-3],1.05
10,EKVX,0.891
11,LC-2-ad,0.434
12,NCI-H1975,1.05
13,SK-LU-1,0.614
14,NCI-H661,0.997
15,RERF-LC-KJ,0.773

# Same assay, conditions: first compound 0.3162 µM
row,Cell Line,relative viability
1,NCI-H23,0.297
2,NCI-H1792,0.831
3,NCI-H1355,0.674
4,NCI-H322M,0.871
5,NCI-H1437,0.403
6,NCI-H1755,0.716
7,NCI-H2023,0.212
8,HCC-15,0.342
9,PC-3 [JPC-3],0.969
10,EKVX,0.816
11,LC-2-ad,0.332
12,NCI-H1975,0.668
13,SK-LU-1,0.387
14,NCI-H661,0.845
15,RERF-LC-KJ,0.685

# Same assay, conditions: first compound 1 µM
row,Cell Line,relative viability
1,NCI-H23,0.169
2,NCI-H1792,0.623
3,NCI-H1355,0.306
4,NCI-H322M,0.533
5,NCI-H1437,0.361
6,NCI-H1755,0.595
7,NCI-H2023,0.106
8,HCC-15,0.125
9,PC-3 [JPC-3],0.722
10,EKVX,0.414
11,LC-2-ad,0.203
12,NCI-H1975,0.249
13,SK-LU-1,0.327
14,NCI-H661,0.736
15,RERF-LC-KJ,0.46

# Compound: CC1=C(N=C(N=C1N)[C@H](CC(=O)N)NC[C@@H](C(=O)N)N)C(=O)N[C@@H]([C@H](C2=CN=CN2)OC3C(C(C(C(O3)CO)O)O)OC4C(C(C(C(O4)CO)O)OC(=O)N)O)C(=O)N[C@H](C)[C@H]([C@H](C)C(=O)N[C@@H]([C@@H](C)O)C(=O)NCCC5=NC(=CS5)C6=NC(=CS6)C(=O)NCCC[S+](C)C)O [Bleomycin] + CC(=O)Nc1cccc(-n2c(=O)n(C3CC3)c(=O)c3c(Nc4ccc(I)cc4F)n(C)c(=O)c(C)c32)c1 [Trametinib] (partner 0.02 µM)
# Assay: as above
# Conditions: first compound 0.01 µM; main component drawn
# Summary of the method: as §1
row,Cell Line,relative viability
1,NCI-H23,0.226
2,NCI-H1792,0.462
3,NCI-H1355,0.415
4,NCI-H322M,0.477
5,NCI-H1437,0.475
6,NCI-H1755,0.734
7,NCI-H2023,0.277
8,HCC-15,0.348
9,PC-3 [JPC-3],0.68
10,EKVX,0.396
11,LC-2-ad,0.736
12,NCI-H1975,0.326
13,SK-LU-1,0.415
14,NCI-H661,0.546
15,RERF-LC-KJ,0.678

# Same assay, conditions: first compound 0.03162 µM; main component drawn
row,Cell Line,relative viability
1,NCI-H23,0.321
2,NCI-H1792,0.396
3,NCI-H1355,0.385
4,NCI-H322M,0.524
5,NCI-H1437,0.411
6,NCI-H1755,0.726
7,NCI-H2023,0.383
8,HCC-15,0.338
9,PC-3 [JPC-3],0.722
10,EKVX,0.298
11,LC-2-ad,0.674
12,NCI-H1975,0.284
13,SK-LU-1,0.487
14,NCI-H661,0.484
15,RERF-LC-KJ,0.563

# Same assay, conditions: first compound 0.1 µM; main component drawn
row,Cell Line,relative viability
1,NCI-H23,0.189
2,NCI-H1792,0.356
3,NCI-H1355,0.482
4,NCI-H322M,0.479
5,NCI-H1437,0.678
6,NCI-H1755,0.78
7,NCI-H2023,0.363
8,HCC-15,0.365
9,PC-3 [JPC-3],0.617
10,EKVX,0.301
11,LC-2-ad,0.541
12,NCI-H1975,0.327
13,SK-LU-1,0.464
14,NCI-H661,0.477
15,RERF-LC-KJ,0.492

# Same assay, conditions: first compound 0.3162 µM; main component drawn
row,Cell Line,relative viability
1,NCI-H23,0.161
2,NCI-H1792,0.317
3,NCI-H1355,0.317
4,NCI-H322M,0.385
5,NCI-H1437,0.439
6,NCI-H1755,0.665
7,NCI-H2023,0.148
8,HCC-15,0.209
9,PC-3 [JPC-3],0.449
10,EKVX,0.196
11,LC-2-ad,0.291
12,NCI-H1975,0.226
13,SK-LU-1,0.43
14,NCI-H661,0.392
15,RERF-LC-KJ,0.272

# Same assay, conditions: first compound 1 µM; main component drawn
row,Cell Line,relative viability
1,NCI-H23,0.144
2,NCI-H1792,0.189
3,NCI-H1355,0.198
4,NCI-H322M,0.504
5,NCI-H1437,0.276
6,NCI-H1755,0.61
7,NCI-H2023,0.129
8,HCC-15,0.186
9,PC-3 [JPC-3],0.433
10,EKVX,0.158
11,LC-2-ad,0.243
12,NCI-H1975,0.152
13,SK-LU-1,0.392
14,NCI-H661,0.292
15,RERF-LC-KJ,0.229
